Laboratory results taken from ChEMBL document CHEMBL1133199, “Synthesis and uptake of nitric oxide-releasing drugs by the P2 nucleoside transporter in Trypanosoma equiperdum” (Bioorg Med Chem Lett, 2000).

Assays:
[1] = target: T1, Adenosine transporter 1 (Trypanosoma brucei, UniProt Q9Y0I0); assay: (§1) Compound was tested for inhibition of Adenosine transporter P2 type by using [2-3H]adenosine as radioligand in Trypanosoma equiperdum
T1 sequence (Q9Y0I0 whole entry): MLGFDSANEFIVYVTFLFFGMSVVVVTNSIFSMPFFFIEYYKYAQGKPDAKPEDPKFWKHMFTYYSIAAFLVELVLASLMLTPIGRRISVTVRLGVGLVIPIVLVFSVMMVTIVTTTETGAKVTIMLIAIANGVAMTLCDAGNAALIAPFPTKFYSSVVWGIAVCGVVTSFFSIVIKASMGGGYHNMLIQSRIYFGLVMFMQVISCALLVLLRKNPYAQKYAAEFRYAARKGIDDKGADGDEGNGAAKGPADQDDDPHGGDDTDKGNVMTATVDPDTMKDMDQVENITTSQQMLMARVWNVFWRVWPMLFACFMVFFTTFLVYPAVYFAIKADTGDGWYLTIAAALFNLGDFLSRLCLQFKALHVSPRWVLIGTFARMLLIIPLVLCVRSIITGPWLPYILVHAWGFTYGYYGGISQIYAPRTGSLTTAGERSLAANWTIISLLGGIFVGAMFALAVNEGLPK

[2] = compound: Nc1ncnc2c1ncn2[C@@H]1O[C@H](CO)[C@@H](O)[C@H]1O; assay: as §1

Q: How did the Ki [1] turn out when Nc1ncnc2c1ncn2CCO[N+](=O)[O-] was run?
A: 1.9 µM

Q: How did the Ki [1] turn out when NCCS[As](SCCN)c1ccc(Nc2nc(N)nc(N)n2)cc1 [CYMELARSEN] was run?
A: 22.9 µM

Q: Which Ki [1] does the source give for CC(=O)NC(C(=O)NC[C@H]1OC(n2cnc3c(N)ncnc32)[C@H](O)[C@@H]1O)C(C)(C)SN=O (some centres not stated) here?
A: 3.47 µM

Q: With CC(=O)NC(C(=O)Nc1ccc(N)nc1)C(C)(C)SN=O (configuration not stated) as the molecule, how does the Ki [1] read?
A: 404 µM

Q: Nc1nc(N)c2c(no[n+]2[O-])n1 was tested. Which Ki [1] did it give?
A: 117 µM

Q: Nc1nc(N)nc(Nc2ccc(CCO[N+](=O)[O-])cc2)n1 was tested. Which Ki [1] did it give?
A: 0.2 µM

Q: How did the Ki [1] turn out when O=[N+]([O-])OCc1ccccc1 was run?
A: > 1000 µM

Q: Which Ki [1] does the source give for CC(=O)NC(C(=O)NCCn1cnc2c(N)ncnc21)C(C)(C)SN=O (configuration not stated) here?
A: 0.62 µM

Q: CC(=O)N[C@@H](C(=O)O)C(C)(C)SN=O was tested. Which Ki [1] did it give?
A: > 1000 µM

Q: With CC(=O)NC(C(=O)Nc1ccc(Nc2nc(N)nc(N)n2)cc1)C(C)(C)SN=O (configuration not stated) as the molecule, how does the Ki [1] read?
A: 0.58 µM

Q: With Nc1ncnc2c1ncn2[C@@H]1O[C@H](CO[N+](=O)[O-])[C@@H](O)[C@H]1O as the molecule, how does the Ki [1] read?
A: 12.3 µM

B1: Adenosine transporter 1 (Trypanosoma brucei), Q9Y0I0 (protein)
chain: MLGFDSANEFIVYVTFLFFGMSVVVVTNSIFSMPFFFIEYYKYAQGKPDAKPEDPKFWKHMFTYYSIAAFLVELVLASLMLTPIGRRISVTVRLGVGLVIPIVLVFSVMMVTIVTTTETGAKVTIMLIAIANGVAMTLCDAGNAALIAPFPTKFYSSVVWGIAVCGVVTSFFSIVIKASMGGGYHNMLIQSRIYFGLVMFMQVISCALLVLLRKNPYAQKYAAEFRYAARKGIDDKGADGDEGNGAAKGPADQDDDPHGGDDTDKGNVMTATVDPDTMKDMDQVENITTSQQMLMARVWNVFWRVWPMLFACFMVFFTTFLVYPAVYFAIKADTGDGWYLTIAAALFNLGDFLSRLCLQFKALHVSPRWVLIGTFARMLLIIPLVLCVRSIITGPWLPYILVHAWGFTYGYYGGISQIYAPRTGSLTTAGERSLAANWTIISLLGGIFVGAMFALAVNEGLPK
Q: Which Km [2] does the source give for B1 here?
A: 0.7 µM
